In patent US10800754B2, “Heterocyclic amide compound” (TAKEDA PHARMACEUTICAL COMPANY LIMITED, priority 2016, dated 2020):

Tests used:
human PRS protein = molecular target: T1, human PRS protein (Homo sapiens, UniProt P07814); assay: PRS inhibitory activity (ATP/[32P]pyrophosphate exchange enzyme reaction); assay type: biochemical; conditions: 300 nM test compound; recombinant human PRS (EPRS 998-1512); read-out: inhibitory rate (%) of PRS
T1 construct: to construct His-Avi-hEPRS (998-1512) expression plasmid; His tag (N); Avi tag (N); TEV cleavage site (ENLYFQ/GS, encoded by forward primer hEPRS-TEV-NheF) (N); made in house; host or cells: E. coli BL21(DE3)
T1 sequence (P07814 998-1512): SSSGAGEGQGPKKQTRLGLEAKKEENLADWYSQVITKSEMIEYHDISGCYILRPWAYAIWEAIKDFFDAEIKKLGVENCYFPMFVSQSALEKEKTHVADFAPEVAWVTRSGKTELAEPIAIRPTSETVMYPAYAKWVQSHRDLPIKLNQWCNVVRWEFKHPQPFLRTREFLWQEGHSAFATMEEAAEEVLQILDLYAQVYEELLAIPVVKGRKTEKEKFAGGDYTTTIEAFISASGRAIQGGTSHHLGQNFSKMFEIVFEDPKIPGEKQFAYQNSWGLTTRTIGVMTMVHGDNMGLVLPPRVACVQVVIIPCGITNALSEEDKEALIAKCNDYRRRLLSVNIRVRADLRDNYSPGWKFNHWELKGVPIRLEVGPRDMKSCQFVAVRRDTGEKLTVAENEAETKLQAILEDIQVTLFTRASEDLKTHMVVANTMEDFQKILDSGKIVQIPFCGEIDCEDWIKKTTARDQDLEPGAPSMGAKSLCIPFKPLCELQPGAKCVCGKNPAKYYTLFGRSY
Outline: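 His-Avi-tagged human EPRS catalytic domain (998-1512), E. coli-expressed, was preincubated 60 min with compound (enzyme added as 40 nM solution) in Tris pH 7.5, KCl, DTT, Tween 20 and MgCl2. The substrate solution contained 300 μM ATP, 160 μM L-proline, and 400 μM pyrophosphate with [32P]pyrophosphate; reaction ran 30 min at room temperature. Charcoal-captured label was counted, with enzyme-free wells taken as 100% inhibition.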

[1] = system: human ovarian cancer cell A2780; assay: proliferation inhibitory activity against A2780 cells (CellTiter-Glo); assay type: cell-based; conditions: A2780, 72 h, 1 μM test compound, 3 days of culture, read-out: proliferation inhibitory rate (%) of A2780 cells
Procedure: The proliferation inhibitory activity of the compound of the present invention against human ovarian cancer cell A2780 was evaluated by the following method.
Human ovarian cancer cells A2780 were seeded in a 384 well culture plate at 1000 cells in 30 μL of medium per well by using RPMI-1640 medium (Wako Pure Chemical Industries, Ltd.) containing 10% fetal bovine serum and penicillin/streptomycin. The next day, 10 μL of RPMI-1640 medium containing the test compound was added to the cells. After 3 days of culture, 20 μL of CellTiter-Glo Luminescent Cell Viability Assay solution (Promega, Fitchburg, Wis., US) was added. The luminescence signal was measured using EnVision (PerkinElmer, Waltham, Mass., US) and the inhibitory rate (%) of the test compound was calculated with a well free of seeding of cell as 100% inhibition.

Compound	inhibition at 0.3 µM (human PRS protein)	inhibition at 1 µM [1]
Cn1cc(-c2ccc(F)c(CC(=O)Nc3cc(N4CC[C@@](C#N)(C5CC5)C4=O)ccn3)c2)cn1 [Example 53, N-(4-((3S)-3-cyano-3-cyclopropyl-2-oxopyrrolidin-1-yl)pyridin-2-yl)-2-(2-fluoro-5-(1-methyl-1H-pyrazol-4-yl)phenyl)acetamide]	100%	82%
Cc1cc(N2CC[C@@](C#N)(C3CC3)C2=O)cc(NC(=O)Cc2cccc(-c3cnn(C)c3)c2)n1 [Example 30, N-(4-((3S)-3-cyano-3-cyclopropyl-2-oxopyrrolidin-1-yl)-6-methylpyridin-2-yl)-2-(3-(1-methyl-1H-pyrazol-4-yl)phenyl)acetamide]	99%	99%
Cc1cc(N2CC[C@@](C#N)(C3CC3)C2=O)cc(NC(=O)Cc2cc(-c3cnn(C)c3)cc(C(F)(F)F)c2)n1 [Example 59, N-(4-((3S)-3-cyano-3-cyclopropyl-2-oxopyrrolidin-1-yl)-6-methylpyridin-2-yl)-2-(3-(1-methyl-1H-pyrazol-4-yl)-5-(trifluoromethyl)-phenyl)acetamide]	93%	51%
N#C[C@@]1(C2CC2)CCN(c2ccnc(NC(=O)Cc3cccc(-c4cnn(CC5CCC5)c4)c3)c2)C1=O [Example 72, N-(4-((3S)-3-cyano-3-cyclopropyl-2-oxopyrrolidin-1-yl)pyridin-2-yl)-2-(3-(1-(cyclobutylmethyl)-1H-pyrazol-4-yl)phenyl)acetamide]	98%	65%
Cc1cc(N2CC[C@@](C#N)(C3CC3)C2=O)cc(NC(=O)Cc2cc(F)cc(-c3ccc(=O)n(C)c3)c2)n1 [Example 60, N-(4-((3S)-3-cyano-3-cyclopropyl-2-oxopyrrolidin-1-yl)-6-methylpyridin-2-yl)-2-(3-fluoro-5-(1-methyl-6-oxo-1,6-dihydropyridin-3-yl)phenyl)acetamide]	99%	97%
Cn1cc(-c2cc(F)cc(CC(=O)Nc3cc(N4CC[C@@](C#N)(C5CC5)C4=O)cc(Br)n3)c2)cn1 [Example 97, N-(6-bromo-4-((3S)-3-cyano-3-cyclopropyl-2-oxopyrrolidin-1-yl)pyridin-2-yl)-2-(3-fluoro-5-(1-methyl-1H-pyrazol-4-yl)phenyl)acetamide]	100%	97%
N#C[C@@]1(C2CC2)CCN(c2ccnc(NC(=O)Cc3cccc(-c4cnn(CCO)c4)c3)c2)C1=O [Example 67, N-(4-((3S)-3-cyano-3-cyclopropyl-2-oxopyrrolidin-1-yl)pyridin-2-yl)-2-(3-(1-(2-hydroxyethyl)-1H-pyrazol-4-yl)phenyl)acetamide]	100%	77%
N#C[C@@]1(C2CC2)CCN(c2ccnc(NC(=O)Cc3cccc(-c4cnn(CC5CC(F)(F)C5)c4)c3)c2)C1=O [Example 87, N-(4-((3S)-3-cyano-3-cyclopropyl-2-oxopyrrolidin-1-yl)pyridin-2-yl)-2-(3-(1-((3,3-difluorocyclobutyl)-methyl)-1H-pyrazol-4-yl)phenyl)acetamide]	100%	74%
N#C[C@@]1(C2CC2)CCN(c2ccnc(NC(=O)Cc3cccc(-c4cnn(CC5CC5(F)F)c4)c3)c2)C1=O (stereo partly drawn) [Example 78, N-(4-((3S)-3-cyano-3-cyclopropyl-2-oxopyrrolidin-1-yl)pyridin-2-yl)-2-(3-(1-((2,2-difluorocyclopropyl)-methyl)-1H-pyrazol-4-yl)phenyl)acetamide]	100%	80%
N#C[C@@]1(C2CC2)CCN(c2ccnc(NC(=O)Cc3cccc(-c4cn[nH]c4)c3)c2)C1=O [Example 56, N-(4-((3S)-3-cyano-3-cyclopropyl-2-oxopyrrolidin-1-yl)pyridin-2-yl)-2-(3-(1H-pyrazol-4-yl)phenyl)acetamide]	98%	64%
N#C[C@@]1(C2CC2)CCN(c2ccnc(NC(=O)Cc3cccc(-c4cnn(C(F)F)c4)c3)c2)C1=O [Example 44, N-(4-((3S)-3-cyano-3-cyclopropyl-2-oxopyrrolidin-1-yl)pyridin-2-yl)-2-(3-(1-(difluoromethyl)-1H-pyrazol-4-yl)phenyl)acetamide]	100%	86%
Cn1cc(-c2cccc(CC(=O)Nc3cc(N4CC[C@@](C#N)(C5CC5)C4=O)ccn3)c2)nn1 [Example 47, N-(4-((3S)-3-cyano-3-cyclopropyl-2-oxopyrrolidin-1-yl)pyridin-2-yl)-2-(3-(1-methyl-1H-1,2,3-triazol-4-yl)phenyl)acetamide]	99%	66%
N#C[C@@]1(C2CC2)CCN(c2ccnc(NC(=O)Cc3cccc(-c4cnn(Cc5ccccc5)c4)c3)c2)C1=O [Example 79, 2-(3-(1-benzyl-1H-pyrazol-4-yl)phenyl)-N-(4-((3S)-3-cyano-3-cyclopropyl-2-oxopyrrolidin-1-yl)pyridin-2-yl)acetamide]	100%	65%
CC(C)(O)Cn1cc(-c2cccc(CC(=O)Nc3cc(N4CC[C@@](C#N)(C5CC5)C4=O)ccn3)c2)cn1 [Example 101, N-(4-((3S)-3-cyano-3-cyclopropyl-2-oxopyrrolidin-1-yl)pyridin-2-yl)-2-(3-(1-(2-hydroxy-2-methylpropyl)-1H-pyrazol-4-yl)phenyl)acetamide]	99%	69%
Cc1cc(N2CC[C@@](C#N)(C3CC3)C2=O)cc(NC(=O)Cc2ccccc2)n1 [Example 20, N-(4-((3S)-3-cyano-3-cyclopropyl-2-oxopyrrolidin-1-yl)-6-methylpyridin-2-yl)-2-phenylacetamide]	94%	63%
N#C[C@@]1(C2CC2)CCN(c2ccnc(NC(=O)Cc3cccc(-c4cnn(CC(F)F)c4)c3)c2)C1=O [Example 38, N-(4-((3S)-3-cyano-3-cyclopropyl-2-oxopyrrolidin-1-yl)pyridin-2-yl)-2-(3-(1-(2,2-difluoroethyl)-1H-pyrazol-4-yl)phenyl)acetamide]	100%	88%
CCc1cc(N2CC[C@@](C#N)(C3CC3)C2=O)cc(NC(=O)Cc2cc(F)cc(-c3cnn(C)c3)c2)n1 [Example 99, N-(4-((3S)-3-cyano-3-cyclopropyl-2-oxopyrrolidin-1-yl)-6-ethylpyridin-2-yl)-2-(3-fluoro-5-(1-methyl-1H-pyrazol-4-yl)phenyl)acetamide]	99%	70%
N#C[C@@]1(C2CC2)CCN(c2ccnc(NC(=O)Cc3cccc(-c4cnn(CC5CCOCC5)c4)c3)c2)C1=O [Example 84, N-(4-((3S)-3-cyano-3-cyclopropyl-2-oxopyrrolidin-1-yl)pyridin-2-yl)-2-(3-(1-(tetrahydro-2H-pyran-4-ylmethyl)-1H-pyrazol-4-yl)phenyl)acetamide]	97%	55%
COCCn1cc(-c2cccc(CC(=O)Nc3cc(N4CC[C@@](C#N)(C5CC5)C4=O)ccn3)c2)cn1 [Example 70, N-(4-((3S)-3-cyano-3-cyclopropyl-2-oxopyrrolidin-1-yl)pyridin-2-yl)-2-(3-(1-(2-methoxyethyl)-1H-pyrazol-4-yl)phenyl)acetamide]	99%	58%
